Test results: the kinase profiling compilation of Christmann-Franck et al. (2016)
Blank lines part the entries; values can stand above or below the compound they belong to.

Assays:
Assay in all cases: radiometric filter-binding kinase assay, Kinase HotSpot
Conditions in all cases: compound 0.5 µM; ATP 10 µM
MAP3K3 (human) = MAP3K3 (human) (UniProt Q99759)
MAP3K14 (human) = MAP3K14 (human) (UniProt Q99558)
OXSR1 (human) = OXSR1 (human) (UniProt O95747)
ERBB4 (human) = ERBB4 (human) (UniProt Q15303)
PRKACG (human) = PRKACG (human) (UniProt P22612)
ALK (human) = ALK (human) (UniProt Q9UM73)
ACVR1B (human) = ACVR1B (human) (UniProt P36896)
RPS6KA4 KD2 (human) = RPS6KA4 KD2 (human) (UniProt O75676)
NEK7 (human) = NEK7 (human) (UniProt Q8TDX7)
PIM3 (human) = PIM3 (human) (UniProt Q86V86)
CSNK1A1 (human) = CSNK1A1 (human) (UniProt P48729)
RPS6KB2 (human) = RPS6KB2 (human) (UniProt Q9UBS0)
SLK (human) = SLK (human) (UniProt Q9H2G2)
RET (human) = RET (human) (UniProt P07949)
TAOK3 (human) = TAOK3 (human) (UniProt Q9H2K8)
MYO3B (human) = MYO3B (human) (UniProt Q8WXR4)
ULK1 (human) = ULK1 (human) (UniProt O75385)
HIPK1 (human) = HIPK1 (human) (UniProt Q86Z02)
PKN1 (human) = PKN1 (human) (UniProt Q16512)
PDGFRA (human) = PDGFRA (human) (UniProt P16234)
MATK (human) = MATK (human) (UniProt P42679)
TNK2 (human) = TNK2 (human) (UniProt Q07912)
HIPK3 (human) = HIPK3 (human) (UniProt Q9H422)
VRK1 (human) = VRK1 (human) (UniProt Q99986)
MAP2K2 (human) = MAP2K2 (human) (UniProt P36507)
AURKC (human) = AURKC (human) (UniProt Q9UQB9)
STK24 (human) = STK24 (human) (UniProt Q9Y6E0)
TEC (human) = TEC (human) (UniProt P42680)
PRKX (human) = PRKX (human) (UniProt P51817)
PRKCH (human) = PRKCH (human) (UniProt P24723)
LIMK1 (human) = LIMK1 (human) (UniProt P53667)
ACVRL1 (human) = ACVRL1 (human) (UniProt P37023)
MELK (human) = MELK (human) (UniProt Q14680)
CSF1R (human) = CSF1R (human) (UniProt P07333)
CAMK1D (human) = CAMK1D (human) (UniProt Q8IU85)
FGFR3 (human) = FGFR3 (human) (UniProt P22607)
KDR (human) = KDR (human) (UniProt P35968)
FER (human) = FER (human) (UniProt P16591)
PHKG1 (human) = PHKG1 (human) (UniProt Q16816)
PTK2 (human) = PTK2 (human) (UniProt Q05397)
NLK (human) = NLK (human) (UniProt Q9UBE8)
CDC42BPA (human) = CDC42BPA (human) (UniProt Q5VT25)

Sequence of PDGFRA (human) (P16234 whole entry, looked up): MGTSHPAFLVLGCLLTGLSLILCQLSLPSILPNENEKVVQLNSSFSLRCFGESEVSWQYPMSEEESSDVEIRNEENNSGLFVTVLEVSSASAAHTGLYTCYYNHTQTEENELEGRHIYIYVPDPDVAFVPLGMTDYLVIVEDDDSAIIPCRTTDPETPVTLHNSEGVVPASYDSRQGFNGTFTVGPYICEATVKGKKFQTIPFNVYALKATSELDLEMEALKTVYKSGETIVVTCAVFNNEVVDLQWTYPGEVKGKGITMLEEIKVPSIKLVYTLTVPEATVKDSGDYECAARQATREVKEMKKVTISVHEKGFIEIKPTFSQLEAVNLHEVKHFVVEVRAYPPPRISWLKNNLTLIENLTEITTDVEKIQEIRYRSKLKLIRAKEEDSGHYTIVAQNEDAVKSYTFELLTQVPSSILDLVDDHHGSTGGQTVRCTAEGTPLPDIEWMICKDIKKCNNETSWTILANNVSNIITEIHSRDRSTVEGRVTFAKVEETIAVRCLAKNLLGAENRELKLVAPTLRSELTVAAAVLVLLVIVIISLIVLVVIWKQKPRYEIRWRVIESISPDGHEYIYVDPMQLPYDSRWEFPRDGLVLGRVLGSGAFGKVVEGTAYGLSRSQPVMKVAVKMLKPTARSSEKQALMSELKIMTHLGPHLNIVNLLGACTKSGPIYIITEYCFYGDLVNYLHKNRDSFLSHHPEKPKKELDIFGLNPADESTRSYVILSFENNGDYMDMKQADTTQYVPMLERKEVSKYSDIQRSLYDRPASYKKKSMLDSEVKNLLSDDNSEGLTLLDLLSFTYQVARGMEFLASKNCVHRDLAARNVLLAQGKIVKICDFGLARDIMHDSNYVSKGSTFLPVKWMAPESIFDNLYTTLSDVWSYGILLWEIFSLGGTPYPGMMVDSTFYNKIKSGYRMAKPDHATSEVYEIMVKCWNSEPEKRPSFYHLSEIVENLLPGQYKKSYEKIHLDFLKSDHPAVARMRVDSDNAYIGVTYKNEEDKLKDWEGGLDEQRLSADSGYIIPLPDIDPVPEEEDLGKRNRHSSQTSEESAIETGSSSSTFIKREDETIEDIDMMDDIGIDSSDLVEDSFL
Sequence of RPS6KA4 KD2 (human) (O75676 whole entry, looked up): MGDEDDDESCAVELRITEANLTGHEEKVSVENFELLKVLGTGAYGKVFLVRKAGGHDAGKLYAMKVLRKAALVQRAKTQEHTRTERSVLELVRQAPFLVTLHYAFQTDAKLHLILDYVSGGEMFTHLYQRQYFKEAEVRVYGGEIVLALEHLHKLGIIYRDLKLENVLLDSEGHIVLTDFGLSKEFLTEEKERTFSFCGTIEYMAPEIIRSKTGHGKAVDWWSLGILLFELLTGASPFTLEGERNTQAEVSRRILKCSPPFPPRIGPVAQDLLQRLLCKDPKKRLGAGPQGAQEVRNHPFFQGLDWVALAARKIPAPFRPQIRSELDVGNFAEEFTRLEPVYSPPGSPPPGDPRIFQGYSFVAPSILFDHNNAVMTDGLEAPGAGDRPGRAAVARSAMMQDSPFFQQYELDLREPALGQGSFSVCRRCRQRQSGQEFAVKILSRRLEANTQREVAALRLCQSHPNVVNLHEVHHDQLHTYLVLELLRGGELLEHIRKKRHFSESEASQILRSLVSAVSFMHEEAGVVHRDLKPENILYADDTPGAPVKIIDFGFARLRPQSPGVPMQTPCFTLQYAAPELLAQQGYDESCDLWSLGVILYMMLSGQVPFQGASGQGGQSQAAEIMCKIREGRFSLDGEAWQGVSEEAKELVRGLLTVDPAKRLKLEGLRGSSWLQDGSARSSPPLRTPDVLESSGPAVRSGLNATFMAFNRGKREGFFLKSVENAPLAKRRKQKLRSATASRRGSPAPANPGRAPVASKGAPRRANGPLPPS
Sequence of CSNK1A1 (human) (P48729 whole entry, looked up): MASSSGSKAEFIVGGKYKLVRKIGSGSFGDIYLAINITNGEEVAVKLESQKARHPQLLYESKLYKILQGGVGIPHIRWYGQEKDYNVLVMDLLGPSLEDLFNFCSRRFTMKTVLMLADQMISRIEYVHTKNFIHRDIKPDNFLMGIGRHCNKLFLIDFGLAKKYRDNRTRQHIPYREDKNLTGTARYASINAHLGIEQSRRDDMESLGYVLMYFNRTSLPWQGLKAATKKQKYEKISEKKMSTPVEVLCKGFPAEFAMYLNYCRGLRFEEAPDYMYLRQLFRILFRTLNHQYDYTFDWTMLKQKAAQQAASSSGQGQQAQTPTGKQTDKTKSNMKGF
Sequence of ACVR1B (human) (P36896 whole entry, looked up): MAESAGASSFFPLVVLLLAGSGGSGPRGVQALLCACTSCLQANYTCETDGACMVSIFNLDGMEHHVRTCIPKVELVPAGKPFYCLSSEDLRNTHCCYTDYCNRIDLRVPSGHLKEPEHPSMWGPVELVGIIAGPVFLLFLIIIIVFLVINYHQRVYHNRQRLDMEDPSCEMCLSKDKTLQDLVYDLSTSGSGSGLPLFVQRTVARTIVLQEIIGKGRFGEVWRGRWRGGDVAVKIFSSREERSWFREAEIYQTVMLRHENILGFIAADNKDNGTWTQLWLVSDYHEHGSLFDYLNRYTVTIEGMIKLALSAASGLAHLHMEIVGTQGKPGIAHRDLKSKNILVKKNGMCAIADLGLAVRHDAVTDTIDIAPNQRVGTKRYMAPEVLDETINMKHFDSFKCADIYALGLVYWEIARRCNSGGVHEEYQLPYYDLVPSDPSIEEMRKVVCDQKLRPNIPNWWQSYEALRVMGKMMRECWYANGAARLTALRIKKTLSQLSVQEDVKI
Sequence of MELK (human) (Q14680 whole entry, looked up): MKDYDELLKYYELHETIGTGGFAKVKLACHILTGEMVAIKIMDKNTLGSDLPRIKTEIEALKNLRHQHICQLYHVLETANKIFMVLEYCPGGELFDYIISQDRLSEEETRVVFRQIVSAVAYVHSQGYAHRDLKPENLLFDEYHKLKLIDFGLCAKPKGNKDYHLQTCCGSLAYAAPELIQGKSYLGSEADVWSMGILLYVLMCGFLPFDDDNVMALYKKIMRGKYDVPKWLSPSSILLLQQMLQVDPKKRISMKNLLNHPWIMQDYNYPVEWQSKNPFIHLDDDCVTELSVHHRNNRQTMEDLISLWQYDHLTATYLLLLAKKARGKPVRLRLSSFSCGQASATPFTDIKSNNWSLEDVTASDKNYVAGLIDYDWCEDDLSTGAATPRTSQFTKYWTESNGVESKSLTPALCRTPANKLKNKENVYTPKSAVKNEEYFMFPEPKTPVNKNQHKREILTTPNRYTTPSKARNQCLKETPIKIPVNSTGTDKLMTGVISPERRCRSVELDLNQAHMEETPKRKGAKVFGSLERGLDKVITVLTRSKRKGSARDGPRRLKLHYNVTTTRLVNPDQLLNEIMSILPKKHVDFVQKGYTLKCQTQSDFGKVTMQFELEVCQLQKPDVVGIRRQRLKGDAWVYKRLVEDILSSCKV
Sequence of PRKX (human) (P51817 whole entry, looked up): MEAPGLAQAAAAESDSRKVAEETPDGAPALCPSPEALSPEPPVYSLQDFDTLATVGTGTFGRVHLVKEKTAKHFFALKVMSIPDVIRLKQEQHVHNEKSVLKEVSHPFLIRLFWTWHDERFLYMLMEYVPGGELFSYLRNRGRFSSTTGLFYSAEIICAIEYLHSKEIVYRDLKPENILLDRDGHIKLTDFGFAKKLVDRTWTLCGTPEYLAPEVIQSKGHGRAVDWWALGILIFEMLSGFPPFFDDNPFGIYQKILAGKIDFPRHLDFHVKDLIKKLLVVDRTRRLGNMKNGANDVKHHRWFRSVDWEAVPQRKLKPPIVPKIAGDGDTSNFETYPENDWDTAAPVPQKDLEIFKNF
Sequence of PRKCH (human) (P24723 whole entry, looked up): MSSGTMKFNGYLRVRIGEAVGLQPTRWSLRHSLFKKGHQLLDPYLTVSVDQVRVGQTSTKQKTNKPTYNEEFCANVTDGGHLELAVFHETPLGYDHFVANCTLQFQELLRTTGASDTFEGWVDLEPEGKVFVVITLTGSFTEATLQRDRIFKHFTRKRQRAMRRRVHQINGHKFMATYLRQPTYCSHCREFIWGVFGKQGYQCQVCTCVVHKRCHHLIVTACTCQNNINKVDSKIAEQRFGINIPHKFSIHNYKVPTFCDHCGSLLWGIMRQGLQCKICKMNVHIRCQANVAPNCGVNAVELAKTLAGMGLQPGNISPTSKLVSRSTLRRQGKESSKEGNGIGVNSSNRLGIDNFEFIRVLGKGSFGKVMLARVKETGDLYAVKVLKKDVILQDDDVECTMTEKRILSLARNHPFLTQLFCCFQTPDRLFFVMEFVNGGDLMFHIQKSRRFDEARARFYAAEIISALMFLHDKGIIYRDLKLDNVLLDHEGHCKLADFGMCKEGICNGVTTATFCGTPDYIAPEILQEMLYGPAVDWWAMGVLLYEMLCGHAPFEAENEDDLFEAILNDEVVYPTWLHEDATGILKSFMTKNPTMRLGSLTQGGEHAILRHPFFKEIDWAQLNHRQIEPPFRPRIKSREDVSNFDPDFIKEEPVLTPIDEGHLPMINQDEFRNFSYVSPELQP
Sequence of NEK7 (human) (Q8TDX7 whole entry, looked up): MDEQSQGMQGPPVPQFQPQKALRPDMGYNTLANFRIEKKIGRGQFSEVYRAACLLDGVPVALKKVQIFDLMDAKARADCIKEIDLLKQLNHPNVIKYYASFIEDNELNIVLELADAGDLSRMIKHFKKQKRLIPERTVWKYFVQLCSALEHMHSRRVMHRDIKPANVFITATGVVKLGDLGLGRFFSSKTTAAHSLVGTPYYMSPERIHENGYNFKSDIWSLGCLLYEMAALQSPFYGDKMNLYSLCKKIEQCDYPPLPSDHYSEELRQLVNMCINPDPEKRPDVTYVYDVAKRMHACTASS

Structure (SMILES): CCN(CC)CCNC(=O)c1c(C)[nH]c(/C=C2\C(=O)Nc3ccc(Cl)cc32)c1C
residual activity (MAP3K3 (human)): 30.6%
residual activity (MAP3K14 (human)): 118%
residual activity (OXSR1 (human)): 80.1%
residual activity (ERBB4 (human)): 86.1%
residual activity (PRKACG (human)): 101%
residual activity (ALK (human)): 3.45%
residual activity (ACVR1B (human)): 103%
residual activity (RPS6KA4 KD2 (human)): 59%
residual activity (NEK7 (human)): 99.3%
residual activity (PIM3 (human)): 74%
residual activity (CSNK1A1 (human)): 75.7%
residual activity (RPS6KB2 (human)): 91.6%
residual activity (SLK (human)): 38%
residual activity (RET (human)): 2.47%
residual activity (TAOK3 (human)): 45.5%
residual activity (MYO3B (human)): 41.3%
residual activity (ULK1 (human)): 13.6%
residual activity (HIPK1 (human)): 96.9%
residual activity (PKN1 (human)): 36.5%
residual activity (PDGFRA (human)): 25.9%
residual activity (MATK (human)): 96.8%
residual activity (TNK2 (human)): 22.6%
residual activity (HIPK3 (human)): 50.8%
residual activity (VRK1 (human)): 90.7%
residual activity (MAP2K2 (human)): 41.4%
residual activity (AURKC (human)): 74.7%
residual activity (STK24 (human)): 22.2%
residual activity (TEC (human)): 102%
residual activity (PRKX (human)): 83.9%
residual activity (PRKCH (human)): 86.1%
residual activity (LIMK1 (human)): 98.4%
residual activity (ACVRL1 (human)): 89%
residual activity (MELK (human)): 16.7%
residual activity (CSF1R (human)): 7.41%
residual activity (CAMK1D (human)): 60.2%
residual activity (FGFR3 (human)): 12.3%
residual activity (KDR (human)): 13.8%
residual activity (FER (human)): 17.7%
residual activity (PHKG1 (human)): 3.19%
residual activity (PTK2 (human)): 25.8%
residual activity (NLK (human)): 101%
residual activity (CDC42BPA (human)): 60%

Structure (SMILES): O=C1NC(=O)C(c2cn(CCCn3ccnc3)c3ccccc23)=C1Nc1ccccc1
residual activity (MAP3K3 (human)): 95.8%
residual activity (MAP3K14 (human)): 96.1%
residual activity (OXSR1 (human)): 97.2%
residual activity (ERBB4 (human)): 59.6%
residual activity (PRKACG (human)): 117%
residual activity (ALK (human)): 97.7%
residual activity (ACVR1B (human)): 96.2%
residual activity (RPS6KA4 KD2 (human)): 44.4%
residual activity (NEK7 (human)): 102%
residual activity (PIM3 (human)): 97.5%
residual activity (CSNK1A1 (human)): 102%
residual activity (RPS6KB2 (human)): 86.1%
residual activity (SLK (human)): 39.1%
residual activity (RET (human)): 95.6%
residual activity (TAOK3 (human)): 76.5%
residual activity (MYO3B (human)): 36%
residual activity (ULK1 (human)): 90.1%
residual activity (HIPK1 (human)): 102%
residual activity (PKN1 (human)): 22.7%
residual activity (PDGFRA (human)): 94.1%
residual activity (MATK (human)): 89.8%
residual activity (TNK2 (human)): 65.9%
residual activity (HIPK3 (human)): 102%
residual activity (VRK1 (human)): 98.7%
residual activity (MAP2K2 (human)): 102%
residual activity (AURKC (human)): 89.8%
residual activity (STK24 (human)): 51.7%
residual activity (TEC (human)): 162%
residual activity (PRKX (human)): 95.5%
residual activity (PRKCH (human)): 29.7%
residual activity (LIMK1 (human)): 83.8%
residual activity (ACVRL1 (human)): 95.9%
residual activity (MELK (human)): 101%
residual activity (CSF1R (human)): 97.5%
residual activity (CAMK1D (human)): 97.4%
residual activity (FGFR3 (human)): 100%
residual activity (KDR (human)): 90.2%
residual activity (FER (human)): 56.1%
residual activity (PHKG1 (human)): 64.6%
residual activity (PTK2 (human)): 104%
residual activity (NLK (human)): 97%
residual activity (CDC42BPA (human)): 95.2%

residual activity (MAP3K3 (human)): 71.2%
residual activity (MAP3K14 (human)): 113%
residual activity (OXSR1 (human)): 93.5%
residual activity (ERBB4 (human)): 11.9%
residual activity (PRKACG (human)): 106%
residual activity (ALK (human)): 80.6%
residual activity (ACVR1B (human)): 93.9%
residual activity (RPS6KA4 KD2 (human)): 105%
residual activity (NEK7 (human)): 94.6%
residual activity (PIM3 (human)): 98.7%
residual activity (CSNK1A1 (human)): 84.9%
residual activity (RPS6KB2 (human)): 107%
residual activity (SLK (human)): 96.5%
residual activity (RET (human)): 9.97%
residual activity (TAOK3 (human)): 92.9%
residual activity (MYO3B (human)): 103%
residual activity (ULK1 (human)): 106%
residual activity (HIPK1 (human)): 114%
residual activity (PKN1 (human)): 104%
residual activity (PDGFRA (human)): 65%
residual activity (MATK (human)): 90%
residual activity (TNK2 (human)): 2.7%
residual activity (HIPK3 (human)): 116%
residual activity (VRK1 (human)): 84.8%
residual activity (MAP2K2 (human)): 103%
residual activity (AURKC (human)): 95%
residual activity (STK24 (human)): 100%
residual activity (TEC (human)): 8.33%
residual activity (PRKX (human)): 102%
residual activity (PRKCH (human)): 92.6%
residual activity (LIMK1 (human)): 95.7%
residual activity (ACVRL1 (human)): 95.9%
residual activity (MELK (human)): 101%
residual activity (CSF1R (human)): 61.3%
residual activity (CAMK1D (human)): 50.3%
residual activity (FGFR3 (human)): 77.5%
residual activity (KDR (human)): 75%
residual activity (FER (human)): 88.1%
residual activity (PHKG1 (human)): 91.1%
residual activity (PTK2 (human)): 93.9%
residual activity (NLK (human)): 96.9%
residual activity (CDC42BPA (human)): 105%
Structure (SMILES): Nc1ncnc2c1c(-c1ccc(Oc3ccccc3)cc1)cn2C1CCCC1

Structure (SMILES): O=C1NC(=O)c2c1c1c3ccccc3n3c1c1c2c2ccccc2n1C1CCC3O1
residual activity (MAP3K3 (human)): 18.4%
residual activity (MAP3K14 (human)): 134%
residual activity (OXSR1 (human)): 92.4%
residual activity (ERBB4 (human)): 72.5%
residual activity (PRKACG (human)): 39.8%
residual activity (ALK (human)): 36.9%
residual activity (ACVR1B (human)): 113%
residual activity (RPS6KA4 KD2 (human)): 12.4%
residual activity (NEK7 (human)): 99.1%
residual activity (PIM3 (human)): 0.238%
residual activity (CSNK1A1 (human)): 104%
residual activity (RPS6KB2 (human)): 35%
residual activity (SLK (human)): 26%
residual activity (RET (human)): 3.21%
residual activity (TAOK3 (human)): 24.5%
residual activity (MYO3B (human)): 19.1%
residual activity (ULK1 (human)): 73.1%
residual activity (HIPK1 (human)): 93.6%
residual activity (PKN1 (human)): 2.68%
residual activity (PDGFRA (human)): 32.8%
residual activity (MATK (human)): 91.7%
residual activity (TNK2 (human)): 2.39%
residual activity (HIPK3 (human)): 49.9%
residual activity (VRK1 (human)): 90.2%
residual activity (MAP2K2 (human)): 87.9%
residual activity (AURKC (human)): 36.5%
residual activity (STK24 (human)): 14.3%
residual activity (TEC (human)): 142%
residual activity (PRKX (human)): 17.5%
residual activity (PRKCH (human)): 47.6%
residual activity (LIMK1 (human)): 49.3%
residual activity (ACVRL1 (human)): 78.6%
residual activity (MELK (human)): 7.13%
residual activity (CSF1R (human)): 29.3%
residual activity (CAMK1D (human)): 33.6%
residual activity (FGFR3 (human)): 36.3%
residual activity (KDR (human)): 4.55%
residual activity (FER (human)): 5.39%
residual activity (PHKG1 (human)): 2.75%
residual activity (PTK2 (human)): 23.5%
residual activity (NLK (human)): 74.1%
residual activity (CDC42BPA (human)): 84%
